Broadly, the pIC50 is −log10 of the IC50, conventionally taken in molar units.

pIC50: −log10 of the molar value.

The target in this experiment is T1, recombinant human mPGES-1 (Homo sapiens, UniProt O14684).
T1 sequence (O14684 1-152): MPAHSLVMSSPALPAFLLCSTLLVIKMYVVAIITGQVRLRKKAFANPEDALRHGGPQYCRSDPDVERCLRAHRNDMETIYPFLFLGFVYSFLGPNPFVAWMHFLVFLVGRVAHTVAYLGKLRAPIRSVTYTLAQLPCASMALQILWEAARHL
The experiment can be described thus: Assay B: mPGES-1 enzyme assay (modified). It counts as biochemical. To be noted: biological assay B (all other compounds); PGH2 final conc. 2 μM, HTRF; read-out: mPGES-1 inhibitory effect IC50. The procedure:
Assay B: mPGES-1 Enzyme Assay (Modified)
The aim of this assay is to determine the affinity of a test compound for the mPGES-1 enzyme.
47 μl of recombinant human mPGES-1 (˜0.5 μg protein/well) containing microsomal suspension in a buffer containing GSH, (2.5 mmol/L L-Glutathione reduced, dissolved in 0.1 mol/L Phosphat Buffer pH 7.4) is dispensed in a 384-well plate and thereafter 1 μl of the test compound(s) is/are added and incubated for 25 minutes at room temperature. The enzyme reaction is started by the addition of 2 ul PGH2 (final conc. 2 μM) dissolved in water-free Diglyme. After 60 seconds the reaction is terminated by addition of a stop solution containing FeCl2 (10 μL 0.074 mol/l FeCl2). The samples are diluted between 1:25 in PBS (Phosphate Buffered Saline). 10 μl of the diluted samples are transferred to 384-well low volume plate. In order to quantify the amount of PGE2 that has been formed, a homogenous time resolved fluorescent (HTRF) detecting of PGE2 has been performed using a commercially available kit from Cisbio according to the manufactures recommendation. This HTRF-based assay has been described in detail (see: Goedken et al., J Biomol Screen, 2008, 13(7), 619-625). Briefly, the diluted samples are mixed with […] PGE2-d2 conjugate and 5 μl anti-PGE2 cryptate conjugate. After an incubation period of the plates over night, the fluorescence is measured by the use of an appropriate microplate reader.
The fluorescence of Europium cryptate (maxex=307 nm, maxem=620 nm) and d2-PGE2 (maxex=620 nm, maxem=665 nm) are measured.
The extent of the specific HTRF is measured as a ratio of the emission intensity at 665 nm vs. that at 620 nm at an excitation pulse of 320 nm. The quantification plate contains also wells with different concentrations of PGE2 as calibration curve for the calculation of the PGE2 concentrations from the HTRF ratio values.
From all mPGES enzyme assay the background is subtracted and the IC50 is calculated over a nonlinear regression with conventional software.
(TR-FRET usually uses a lanthanide donor and a delayed reading to cut background.)
As to `COCCOc1ccc(NC(=O)c2cc(CNC(=O)C(C)(C)C(F)(F)F)ccc2Cl)cc1C(=O)N[C@H]1CC[C@H](C(F)(F)F)CC1` [Example 64], the pIC50 is 8.40.

Turning to `CC(C)(C(=O)NCc1ccc(Cl)c(C(=O)Nc2ccc(OCC(F)F)c(C(=O)NCC3CCCCC3)c2)c1)C(F)(F)F` [Example 129], the pIC50 was 8.30.

With `COCC1(CNC(=O)c2cc(NC(=O)c3cc(CNC(=O)C(C)(C)C(F)(F)F)ccc3Cl)ccc2OCC(F)F)CCCC1` [Example 88], the pIC50 is 8.05.

Consider `CC(C)(C(=O)NCc1ccc(Cl)c(C(=O)Nc2ccc(OCC(F)F)c(C(=O)NC[C@@H]3CCCO3)c2)c1)C(F)(F)F` [Example 117], for which the pIC50 is 7.40.

Regarding `CC(C)(C)C(=O)NCc1ccc(F)c(C(=O)Nc2ccc(OCC(F)F)c(C(=O)Nc3ccc(Br)cc3)c2)c1Cl` [Example 44, N-[4-(2,2-Difluoroethyl)oxy-3-(4-bromophenyl)aminocarbonyl-phenyl]-6-fluor-2-chlor-3-(tert-butylcarbonylamino)methyl-benzamide], the pIC50 was 7.82.

Turning to `CC(C)(C(=O)NCc1ccc(Cl)c(C(=O)Nc2ccc(OCC(F)F)c(C(=O)NC3CCCOC3)c2)c1)C(F)(F)F` (stereo not shown) [Example 123], the pIC50 is 7.32.

For the compound `CC(C)(C(=O)NCc1ccc(Cl)c(C(=O)Nc2ccc(OCC(F)F)c(C(=O)NC3CC(F)(F)C3)c2)c1Cl)C(F)(F)F` [Example 154], the pIC50 was 8.05.

For the compound `CC(C)(C(=O)NCc1ccc(Cl)c(C(=O)Nc2ccc(OCC(F)F)c(C(=O)Nc3ccc(Cl)c(C#N)c3)c2)c1)C(F)(F)F` [Example 106], the pIC50 was 8.22.

Consider `COCCOc1ccc(NC(=O)c2cc(CNC(=O)C(C)(C)C(F)(F)F)ccc2Cl)cc1C(=O)Nc1ccc(Br)cc1` [Example 72], for which the pIC50 is 8.40.

On to `CNC(C)(C)C(=O)NCc1ccc(Cl)c(C(=O)Nc2ccc(OCC(F)F)c(C(=O)Nc3ccc(Br)cc3)c2)c1` [Example 176], for which the pIC50 is 7.30.

Consider `O=C(Nc1ccc(OCC(F)F)c(C(=O)Nc2ccc(Br)cc2)c1)c1cc(CNC(=O)C(F)(F)F)ccc1Cl` [Example 80], for which the pIC50 is 8.00.

Turning to `CC(C)(C(=O)NCc1ccc(Cl)c(C(=O)Nc2ccc(OCC(F)F)c(C(=O)Nc3ccc(F)c(Cl)c3F)c2)c1)C(F)(F)F` [Example 134], the pIC50 was 8.15.

On to `CC(C)(C(=O)NCc1ccc(Cl)c(C(=O)Nc2ccc(OCC(F)F)c(C(=O)NCC3CC3)c2)c1)C(F)(F)F` [Example 95], for which the pIC50 was 8.10.

Turning to `CC(C)C(O)C(=O)NCc1ccc(Cl)c(C(=O)Nc2ccc(OCC(F)F)c(C(=O)Nc3ccc(Br)cc3)c2)c1` (stereo not shown) [Example 175], the pIC50 was 8.05.

In the case of `CC(C)CNC(=O)c1cc(NC(=O)c2cc(CNC(=O)C(C)(C)C(F)(F)F)ccc2Cl)ccc1OCC(F)F` [Example 140], the pIC50 is 8.10.

Turning to `CC(C)(C(=O)NCc1ccc(Cl)c(C(=O)Nc2ccc(OCC(F)F)c(C(=O)NCC(F)(F)F)c2)c1Cl)C(F)(F)F` [Example 147], the pIC50 is 8.10.

In the case of `CC(C)(C(=O)NCc1ccc(Cl)c(C(=O)Nc2ccc(OCC(F)F)c(C(=O)N[C@H]3CC[C@H](C(F)(F)F)CC3)c2)c1)C(F)(F)F` [Example 82, N-[4-(2,2-difluoroethyl)oxy-3-(trans-4-trifluoromethylcyclohexyl)aminocarbonyl-phenyl]-2-chloro-5-[(2,2,2-trifluoro-1,1-dimethyl-ethyl)carbonylamino}methyl-benzamide], the pIC50 was 8.10.

Consider `CC(C)(C(=O)NCc1ccc(Cl)c(C(=O)Nc2ccc(OCC(F)F)c(C(=O)Nc3ccc(Br)cc3)c2)c1)C(F)(F)F` [Example 81], for which the pIC50 is 8.70.

Regarding `CC(C)(C(=O)NCc1ccc(Cl)c(C(=O)Nc2ccc(OCC(F)F)c(C(=O)Nc3ccc(Cl)c(Cl)c3)c2)c1)C(F)(F)F` [Example 125], the pIC50 is 8.30.

For the compound `COc1cc(Cl)ccc1NC(=O)c1cc(NC(=O)c2c(Cl)ccc(CNC(=O)C(C)(C)C(F)(F)F)c2Cl)ccc1OCC(F)F` [Example 158], the pIC50 is 8.70.

With `CC(C)(C)C(=O)NCc1ccc(F)c(C(=O)Nc2ccc(F)c(C(=O)Nc3ccc(Br)cc3)c2)c1F` [Example 49, N-[4-Fluoro-3-(4-bromophenyl)aminocarbonyl-phenyl]-2,6-difluoro-3-(tert-butylcarbonylamino)methyl-benzamide], the pIC50 was 6.92.

In the case of `CC(C)(C(=O)NCc1ccc(Cl)c(C(=O)Nc2ccc(OCC(F)F)c(C(=O)Nc3ccncn3)c2)c1)C(F)(F)F` [Example 118], the pIC50 is 7.01.

Turning to `CC(C)(C(=O)NCc1ccc(Cl)c(C(=O)Nc2ccc(OCC(F)F)c(C(=O)NCCC(F)(F)F)c2)c1)C(F)(F)F` [Example 115], the pIC50 is 7.82.

Consider `CC(C)(C(=O)NCc1ccc(Cl)c(C(=O)Nc2ccc(OCC(F)F)c(C(=O)Nc3ccnc4ccccc34)c2)c1)C(F)(F)F` [Example 131], for which the negative logarithm of the IC50 (pIC50) is 8.05.

Turning to `CC(C)(C)C(=O)NCc1ccc(Cl)c(C(=O)Nc2cnc(OCC(F)F)c(C(=O)N[C@H]3CC[C@H](C(F)(F)F)CC3)c2)c1Cl` [Example 178], the pIC50 is 8.15.

On to `CC(C(=O)NCc1ccc(Cl)c(C(=O)Nc2ccc(OCC(F)F)c(C(=O)Nc3ccc(Br)cc3)c2)c1)N1CCCC1` (stereo not shown) [Example 170], for which the pIC50 was 7.30.

Take `CC(C)(C(=O)NCc1ccc(Cl)c(C(=O)Nc2ccc(OCC(F)F)c(C(=O)NCCC3CC3)c2)c1)C(F)(F)F` [Example 143]: the pIC50 was 8.22.

Turning to `CC(C)(C(=O)NCc1ccc(Cl)c(C(=O)Nc2ccc(OCC(F)F)c(C(=O)Nc3cc(Cl)c4cc[nH]c4c3)c2)c1)C(F)(F)F` [Example 144], the pIC50 is 8.15.

For `Cc1ccc(Cl)cc1NC(=O)c1cc(NC(=O)c2cc(CNC(=O)C(C)(C)C(F)(F)F)ccc2Cl)ccc1OCC(F)F` [Example 86], the pIC50 is 8.30.

With `CC(C)(C(=O)NCc1ccc(Cl)c(C(=O)Nc2ccc(OCC(F)F)c(C(=O)Nc3ccc(Br)cc3)c2)c1Cl)C(F)(F)F` [Example 47, N-[4-(2,2-Difluoroethyl)oxy-3-(4-bromophenyl)aminocarbonyl-phenyl]-2,6-dichloro-3-(2,2,2-trifluoro-1,1-dimethyl-ethyl)carbonylaminomethyl-benzamide], the pIC50 was 8.22.

For `CC1(C(=O)NCc2ccc(Cl)c(C(=O)Nc3ccc(OCC(F)F)c(C(=O)Nc4ccc(Br)cc4)c3)c2)CCCO1` (stereo not shown) [Example 163], the pIC50 was 8.22.

`CC1(C)CC1CNC(=O)c1cc(NC(=O)c2cc(CNC(=O)C(C)(C)C(F)(F)F)ccc2Cl)ccc1OCC(F)F` (stereo not shown) [Example 107]: the pIC50 was 8.30.

`Cn1cccc1C(=O)NCc1ccc(Cl)c(C(=O)Nc2ccc(OCC(F)F)c(C(=O)Nc3ccc(Br)cc3)c2)c1` [Example 167]: the pIC50 was 7.33.

Regarding `Cc1ccc(CNC(=O)C(C)(C)C)c(Cl)c1C(=O)Nc1ccc(OCC(F)F)c(C(=O)Nc2ccc(Br)cc2)c1` [Example 52, N-[4-(2,2-Difluoroethyl)oxy-3-(4-bromophenyl)aminocarbonyl-phenyl]-2-chloro-6-methyl-3-(tert-butylcarbonylamino)methyl-benzamide], the pIC50 is 8.40.

For `COCCOc1ccc(NC(=O)c2cc(CNC(=O)C3(C(F)(F)F)CC3)ccc2Cl)cc1C(=O)N[C@H]1CC[C@H](C(F)(F)F)CC1` [Example 53, N-[4-(2-Methoxy)ethoxy-3-(trans-4-trifluoromethylcyclohexyl)aminocarbonyl-phenyl]-2-chloro-5-[1-(trifluoromethyl)cyclopropyl]carbonylaminomethyl-benzamide], the pIC50 is 7.96.

On to `CC(C)(C)C(=O)NCc1ccc(Cl)c(C(=O)Nc2ccc(N3CCC(F)(F)CC3)c(C(=O)Nc3ccc(Br)cc3)c2)c1Cl` [Example 181], for which the pIC50 is 8.70.

For the compound `Cc1cc(NC(=O)c2cc(NC(=O)c3cc(CNC(=O)C(C)(C)C(F)(F)F)ccc3Cl)ccc2OCC(F)F)ccc1Cl` [Example 92], the pIC50 is 8.22.

With `CC(C)(C(=O)NCc1ccc(Cl)c(C(=O)Nc2ccc(OCC(F)F)c(C(=O)Nc3nc4ccc(Cl)cc4s3)c2)c1)C(F)(F)F` [Example 93], the pIC50 was 8.15.

For `CC(C)(C(=O)NCc1ccc(Cl)c(C(=O)Nc2ccc(OCC(F)F)c(C(=O)Nc3c(F)ccc(F)c3F)c2)c1F)C(F)(F)F` [Example 79], the pIC50 is 8.30.

As for `CC(C)(C(=O)NCc1ccc(Cl)c(C(=O)Nc2ccc(OCC(F)F)c(C(=O)Nc3ccc(F)c(Cl)c3)c2)c1)C(F)(F)F` [Example 128], the pIC50 was 8.30.

Values taken from US8951999B2, “Compounds” (Orexo AB, priority 2009, dated 2015).
